The values below come from paper PMC4434572, “Identification of novel drugs to target dormant micrometastases” (BMC Cancer, 2015).

For this experiment, the system named is cancer cells on SISgel or plastic. Nature of the experiment: Activity of leads and analogs on cancer cells grown on plastic vs SISgel (cell line not stated). Format: cell-based. As to conditions: for SR: ratio IC50-p/IC50-S; for Hit: YES/NO. Here is the method:
The NCI library is no longer available in the form used here, but how it was constructed is described (http://dtp.nci.nih.gov/branches/dscb/diversity_explanation.html). The ChemBridge library is a subset (Set Code NM1024) of the full 50,000 compound library (http://www.chembridge.com/screening_libraries/diversity_libraries/). Compounds were diluted to 100 μM before use. SISgel was prepared as described previously from powdered porcine small intestine submucosa obtained from Cook Biotech (W. Lafayette, IN). It is a natural product that is used extensively in tissue engineering as a bioscaffold. J82 bladder cancer cells and other cell lines were obtained from the ATCC (Bethesda, MD). […] Efficacy in vitro was assessed by plating 30,000 cells in 50 μL of high glucose DMEM with penicillin-streptomycin and 10 % fetal calf serum on SISgel in a 96-well plate containing 50 μL of gelled SISgel per well. Cells were allowed to attach and assume the SISgel phenotype for 48 h. A matching plate without SISgel was prepared 24 h later by pipetting 3,000 cells in 100 μL of high glucose DMEM with penicillin-streptomycin and 10 % fetal calf serum into each well of 96 well plate. The cells were allowed to attach and grow for 24 h. […] The cells were exposed to drug in fresh medium for 48 h, at which time the cell number was determined using the CFDA-AM cellular esterase proliferation assay (cat. #C1354, Life Technologies). For screening the results are reported as the ratio of cell count of cells on the plastic surface to the cell count on SISgel. An initial difference of 1.5 fold identified potential hits. All potential hits were confirmed in triplicate. […] Data were analyzed using nonlinear regression to a sigmoid curve with Prism 4 (GraphPad Software, Inc., LaJolla, CA). […]

Setting [1] is: cells on SISgel, read-out: IC50-S.
The mark [2] stands for this setting: cells on plastic, read-out: IC50-p.

pIC50: −log10 of the molar value. Where two headings read alike, the source gives them in different places.

Consider `O=S(=O)(O)c1ccc2c(N=Nc3c(O)c(S(=O)(=O)O)cc4cc(S(=O)(=O)O)ccc34)c(O)c(S(=O)(=O)O)cc2c1` [2-2-dihydroxy-1-1-azo-naphthalene-3-3-6], for which the SR turned out to be 1.9. The pIC50 under setting [1] is 3.95. In addition, the pIC50 under setting [2] is 3.67.

Consider `Cn1c(=O)c2[nH]c(-c3ccc(S(=O)(=O)O)cc3)nc2n(C)c1=O.O` [8-(p-Sulfophenyl)theophylline hydrate], for which the SR is 2.5. The pIC50 (read-out: IC50-S) was 3.85. Also, the pIC50 (read-out: IC50-p) was 3.46.

Consider `CCN(CC)c1ccc(C(=C2C=CC(=[N+](CC)CC)C=C2)c2ccc(S(=O)(=O)[O-])cc2S(=O)(=O)[O-])cc1.[Na+]` [Acid Blue 1], for which the SR is given as 1.6. Also, under setting [1], the pIC50 was 3.71. Further, the pIC50 under setting [2] is 3.50.

Consider `Nc1c(N=Nc2cccc([N+](=O)[O-])c2)c(S(=O)(=O)[O-])cc2cc(S(=O)(=O)[O-])c(N=Nc3ccccc3)c(O)c12.[Na+].[Na+]` [Acid Blue 29], for which the SR is listed as 1.7. Also, the pIC50 under setting [1] was 3.91. The pIC50 under setting [2] is 3.67.

For the compound `O=S(=O)(O)c1ccc2c(O)c(N=Nc3cccc4ccccc34)c(S(=O)(=O)O)cc2c1.[Na+]` [Acid Dye (Azo Red)], the SR stood at 1. Besides, the pIC50 under setting [1] is 4.68. For the same compound, the pIC50 under setting [2] was 4.64.

Consider `CCN(Cc1cccc(S(=O)(=O)[O-])c1)c1ccc(C(=C2C=CC(=[N+](CC)Cc3cccc(S(=O)(=O)[O-])c3)C=C2)c2ccccc2)cc1.[Na+]` [Acid Green 3], for which the SR was determined as 0.74. Besides, the pIC50 under setting [1] is 3.18. Moreover, the pIC50 under setting [2] was 3.31.

Turning to `O=S(=O)([O-])c1ccc(N=Nc2c(O)ccc3ccccc23)cc1.[Na+]` [Acid Orange 7], the SR amounted to 0.29. Under setting [1], the pIC50 was 3.40. Moreover, the pIC50 under setting [2] is 3.94.

`CC(=O)Nc1cc(S(=O)(=O)[O-])cc2cc(S(=O)(=O)[O-])c(N=Nc3ccccc3)c(O)c12.[Na+].[Na+]` [Acid Red 1]: the Hit result is “YES” and the SR amounted to 2.6. Also, the pIC50 under setting [1] was 4.89. The pIC50 under setting [2] was 4.48.

`Cc1ccc(N=Nc2c(O)c(S(=O)(=O)[O-])cc3cc(S(=O)(=O)[O-])ccc23)c(C)c1.[Na+].[Na+]` [Acid Red 26]: the SR is 0.26. Besides, under setting [1], the pIC50 was 3.22. Further, under setting [2], the pIC50 is 3.81.

Regarding `CC(=O)Nc1ccc(N=Nc2c(N)ccc3cc(S(=O)(=O)O)cc(O)c23)c(S(=O)(=O)O)c1.N.N` [Acid Red 37], the Hit entry is listed as “YES” and the SR was 1.7. Moreover, under setting [1], the pIC50 is 4.29. The pIC50 under setting [2] is 4.07.

In the case of `O=[N+]([O-])c1ccc(N=Nc2c(S(=O)(=O)[O-])cc3cc(S(=O)(=O)[O-])cc(O)c3c2O)cc1.[Na+].[Na+]` [Acid Red 60 Chromotrope 2B], the SR is reported as 1.2. For the same compound, under setting [1], the pIC50 was 4.66. Further, the pIC50 under setting [2] was 4.59.

In the case of `CCN(Cc1cccc(S(=O)(=O)[O-])c1)c1ccc(C(=C2C=CC(=[N+](C)C)C=C2)c2ccc(N(CC)Cc3cccc(S(=O)(=O)O)c3)cc2)cc1.[Na]` [Acid Violet 49], the SR stood at 0.75. Under setting [1], the pIC50 was 4.07. Besides, the negative logarithm of the IC50 (pIC50) under setting [2] was 4.19.

Regarding `CCN(Cc1cccc(S(=O)(=O)[O-])c1)c1ccc(C(=C2C=CC(=[N+](CC)Cc3cccc(S(=O)(=O)[O-])c3)C=C2)c2ccccc2Cl)cc1.[Na+]` [Alizarin Green], the SR is recorded as 0.67. Moreover, under setting [1], the pIC50 was 3.21. In addition, under setting [2], the pIC50 was 3.38.

With `O=S(=O)([O-])c1ccc2c(N=Nc3ccc(S(=O)(=O)[O-])c4ccccc34)c(O)c(S(=O)(=O)[O-])cc2c1.[Na+].[Na+].[Na+]` [Amaranthe], the SR is on record as 1.3. Under setting [1], the pIC50 is 4.59. Further, the pIC50 under setting [2] is 4.48.

`O=S(=O)(O)c1cc2cc(S(=O)(=O)O)c(N=Nc3ccccc3[As](=O)(O)O)c(O)c2c(O)c1N=Nc1ccccc1[As](=O)(O)O` [Arsenazo III]: the SR turned out to be 1.4. Under setting [1], the pIC50 was 4.47. Moreover, the pIC50 under setting [2] is 4.33.

Turning to `O=S(=O)([O-])c1cc(O)c2c(N=Nc3c(S(=O)(=O)[O-])cc4cc(S(=O)(=O)[O-])cc(O)c4c3O)cc(S(=O)(=O)[O-])cc2c1.[Na+].[Na+].[Na+].[Na+]` [Beryllon II], the Hit entry is recorded as “YES” and the SR was found to be 3. For the same compound, the pIC50 under setting [1] was 4.48. Moreover, the pIC50 under setting [2] was 4.03.

`O=S(=O)([O-])c1cc(S(=O)(=O)[O-])c2c(N=Nc3ccc(N=Nc4ccccc4)cc3)c(O)ccc2c1.[Na+].[Na+]` [Brilliant Crocein Moo]: the Hit entry was “YES” and the SR amounted to 1.8. The pIC50 under setting [1] is 4.33. Also, under setting [2], the pIC50 was 4.09.

For `O=S(=O)(O)c1cc(O)c2c(N=Nc3c(S(=O)(=O)O)cc4cc(S(=O)(=O)O)cc(N=Nc5c(S(=O)(=O)O)cc6cc(S(=O)(=O)O)cc(O)c6c5O)c4c3O)cc(S(=O)(=O)O)cc2c1` [Calichrome], the SR was 1.2. In addition, under setting [1], the pIC50 was 3.43. Besides, the pIC50 under setting [2] is 3.33.

Regarding `O=[N+]([O-])c1ccc(N=Nc2c(S(=O)(=O)[O-])cc3cc(S(=O)(=O)[O-])cc(O)c3c2O)cc1.[Na+].[Na+]` [Chromotrope 2B], the Hit result is given as “YES” and the SR was determined as 1.8. Further, the pIC50 under setting [1] is 4.40. In addition, the pIC50 under setting [2] is 4.15.

`O=S(=O)([O-])c1cc(O)c2c(O)c(N=Nc3ccccc3)c(S(=O)(=O)[O-])cc2c1.[Na+].[Na+]` [Chromotrope 2R]: the SR is 0.98. Moreover, the pIC50 under setting [1] was 4.03. The pIC50 under setting [2] is 4.04.

Consider `CC(=O)Nc1ccc(N=Nc2c(S(=O)(=O)[O-])cc3cc(S(=O)(=O)[O-])cc(O)c3c2O)cc1.[Na+].[Na+]` [Chromotrope 6B], for which the Hit result is “YES” and the SR is reported as 2.1. Besides, the pIC50 under setting [1] was 4.47. Besides, under setting [2], the pIC50 was 4.15.

`O=S(=O)(O)c1ccc(N=Nc2ccc3c(S(=O)(=O)O)cccc3c2O)c2ccccc12.[Na+]` [Chromotrope F4B]: the Hit entry is on record as “YES” and the SR worked out at 1.8. Also, the pIC50 under setting [1] is 4.30. For the same compound, the pIC50 under setting [2] was 4.05.

`CCOc1ccc(Nc2ccc(C(=C3C=CC(=[N+](CC)Cc4cccc(S(=O)(=O)[O-])c4)C=C3C)c3ccc(N(CC)Cc4cccc(S(=O)(=O)[O-])c4)cc3C)cc2)cc1.[Na+]` [Comassie Brilliant Blue]: the SR turned out to be 1.6. In addition, the pIC50 under setting [1] is 3.90. Moreover, the pIC50 under setting [2] was 3.70.

Turning to `O=S(=O)([O-])c1cc2cc(S(=O)(=O)O)ccc2c(N=Nc2c(O)cc(S(=O)(=O)[O-])c3ccccc23)c1O.[Na+].[Na+]` [Hydroxy Naphthol Blue], the Hit result is listed as “YES” and the SR was found to be 2.0. The negative-log IC50 (pIC50) under setting [1] is 4.14. Moreover, under setting [2], the pIC50 is 3.84.

`O=S(=O)([O-])c1ccc2c(N=Nc3c(O)cc(S(=O)(=O)[O-])c4ccccc34)c(O)c(S(=O)(=O)[O-])cc2c1.[Na+].[Na+].[Na+]` [HydroxyNapthol Blue]: the Hit entry is given as “YES” and the SR stood at 2.1. Also, the pIC50 under setting [1] was 4.19. Further, the pIC50 under setting [2] was 3.87.

In the case of `CCN(Cc1cccc(S(=O)(=O)[O-])c1)c1ccc(C(=C2C=CC(=[N+](CC)Cc3cccc(S(=O)(=O)[O-])c3)C=C2)c2ccc(S(=O)(=O)[O-])cc2)cc1.[Na+].[Na+]` [Light Green SF Yellowish], the SR is recorded as 2. Under setting [1], the pIC50 is 3.50. The pIC50 under setting [2] was 3.20.

For `O=S(=O)([O-])c1cc(Cl)cc(N=Nc2ccc3c(S(=O)(=O)[O-])cccc3c2O)c1O.[Na+].[Na+]` [Mordant Blue 9], the SR stood at 1.8. Besides, the pIC50 under setting [1] is 3.75. Also, under setting [2], the pIC50 is 3.49.

Take `O=S(=O)([O-])c1cc(S(=O)(=O)[O-])c2c(N=Nc3ccc(S(=O)(=O)[O-])c4ccccc34)c(O)ccc2c1.[Na+].[Na+].[Na+]` [New Coccine]: the Hit result is on record as “YES” and the SR turned out to be 1.6. The pIC50 under setting [1] was 4.57. Moreover, under setting [2], the pIC50 is 4.37.

As to `Cc1nc(N=Nc2ccc(S(=O)(=O)O)cc2S(=O)(=O)O)c(COP(=O)(O)O)c(C=O)c1O` [PPADS], the SR turned out to be 1.4. Also, the pIC50 under setting [1] was 3.53. For the same compound, the pIC50 under setting [2] is 3.38.

With `Nc1cc(S(=O)(=O)[O-])cc2cc(S(=O)(=O)[O-])c(N=Nc3cc([N+](=O)[O-])ccc3O)c(O)c12.[Na+].[Na+]` [Palatine Chrome Green], the SR worked out at 1.1. Besides, the pIC50 under setting [1] was 4.15. Further, the pIC50 under setting [2] was 4.13.

`Cc1cc(C)c(N=Nc2c(O)c(S(=O)(=O)[O-])cc3cc(S(=O)(=O)[O-])ccc23)cc1C.[Na+].[Na+]` [Ponceau 3R]: the SR is 1.3. Also, under setting [1], the negative-log IC50 (pIC50) is 3.95. The pIC50 under setting [2] was 3.84.

The term pIC50 denotes the IC50 on a negative log10 scale, so that one unit is a factor of ten.
